pEC50: −log10 of the molar value. ≈ marks a conversion by molar mass, not a printed value. Blank lines part the entries; values can stand above or below the molecule they belong to.
Assays:
[1] = Cytotoxicity assay in MT-4 cells; type: cell-based; conditions: human, uninfected MT-4 cells, average of at least two independent experiments, read-out: MT4 CC50
Procedure: Compounds were tested in a high-throughput 384-well assay format for their ability to inhibit the replication of HIV-1 (IIIB) in MT-4 cells. Compounds were serially diluted (1:3) in DMSO on 384-well polypropylene plates and further diluted 200-fold into complete RPMI media (10% FBS, 1% P/S) using the Biotek Micro Flow and Labcyte ECHO acoustic dispenser. Each plate contained up to 8 test compounds, with negative (no drug) and positive (5 μM AZT) controls. MT-4 cells were pre-treated with 10 μL of either RPMI (mock-infected) or a fresh 1:250 dilution of HIV-1 IIIB concentrated virus stock. Infected and uninfected MT-4 cells were further diluted in complete RPMI media and added to each plate using a Micro Flow dispenser. After 5 days incubation in a humidified and temperature-controlled incubator (37° C.), Cell Titer Glo (Promega) was added to the assay plates and chemiluminescence read using an Envision plate-reader. EC50 values were defined as the compound concentration that causes a 50% decrease in luminescence signal and were calculated using a sigmoidal dose-response model to generate curve fits and are shown in Table 1.
Example 105: Cytotoxicity Assay in MT-4 Cells
Assays were performed as described in Example 104 except uninfected MT-4 cells were added to each well containing test compound. In addition, 10 μM puromycin was added to the last column of each assay plate to assess a base level of cytotoxicity.

HBV = assay: Antiviral (HBV) assay in primary human hepatocytes (PHHs); type: cell-based; conditions: Hepatitis B virus, Hepatocyte, 120 h; HBV (GTD) infected PHH, 5 days, HBV DNA in supernatant; average of at least two independent experiments
Procedure: Example 106: Antiviral (HBV) Assay in Primary Human Hepatocytes (PHHs)
Cryopreserved PHH were thawed, recovered by centrifugation at 100 g in cryopreserved hepatocyte recovery medium (Thermo Fisher Scientific; CM7500), and plated on collagen matrix (Life Technologies; Catalog Number: R-011-K) coated T225 flasks (Corning CellBIND, Catalog Number: 3293) at a density of 25E6 live cells in 60 mls media. Cells were plated in William's E medium (Thermo Fisher Scientific; A1217601) supplemented with 3.6% hepatocyte thawing and plating supplement (Thermo Fisher Scientific, A15563), 5% fetal bovine serum (Thermo Fisher Scientific; 16000-036), 1 μM dexamethasone (Thermo Fisher Scientific, A15563), and 0.2% Torpedo antibiotic mix (Bioreclamation; Z990008). The plating medium was removed after 14 hours and the cells were subsequently cultured in maintenance medium: William's E medium supplemented with 4% hepatocyte maintenance supplement (Thermo Fisher Scientific; AI15564), 2% fetal bovine serum, 0.1μ M dexamethasone, 1.5% DMSO (Sigma-Aldrich, St. Louis, MO; D8418), and 0.2% Torpedo antibiotic mix. Approximately 24 hours after plating, PHH were infected with HepAD38-derived GTD virus at 500 viral genome equivalents per cell in PHH maintenance medium supplemented with 4% PEG 8000 (Promega, Madison, WI; V3011). Infections were allowed to proceed for 24 hours before removing the remaining extracellular virions by washing with maintenance medium three times. After allowing viral infection to take place for 3 days, the infected cells were harvested from the flasks by trypsinization (0.25X in PBS without Ca/Mg, 25 minutes) following a 4 minute 0.5X Versene (Life Technologies Catalog Number: 15040-066) treatment and two PBS washes. Trypsinized cells were inactivated in 10% FBS containing maintenance medium, centrifuged 6 minutes at 50 g, resuspended in hepatocyte maintenance medium, filtered through a 40 uM cell strainer, and adjusted to a density of 0.25E6 cells/ml. Infected cells were seeded on 384 well collagen coated plates (Greiner, Austria) at a density of 20,000 cells/well containing serially diluted compounds of the present disclosure or DMSO (0.5%) in a final volume of 80 μl. The assay plates were incubated for a period of 5 days and the antiviral activity of the test compounds were assayed by detecting the presence of HBV DNA in the culture supernatant using the QuantiGene™ 2.0 nucleic acid quantification kit (Affymetrix, Santa Clara, CA).

[2] = Cytotoxicity assay in primary human hepatocytes (PHHs); type: cell-based; conditions: HBV-infected primary human hepatocytes, HBV-infected PHH, Cell Titer Glo, average of at least two independent experiments
Procedure: Example 107: Cytotoxicity Assay in Primary Human Hepatocytes (PHHs)
The HBV-infected primary human hepatocytes are seeded (20K cells/well in 80 uL of Media) in 384well collagen coated plates pre-spotted with compounds. After 5 days, 40 ul of cell supernatant is removed to quantify HBV DNA levels as described in Example 106. Then, 40 ul Cell Titer Glo Reagent (Promega Catalog Number: G7572) is added to the remaining cells and luminescence is measured on the EnVision microplate reader.

[3] = Kinetic solubility analysis; type: physicochemical; conditions: 1× PBS, 24.2 °C, aqueous buffer, kinetic from dmso stock; pH 7.4 PBS, 1% DMSO, 24-hour incubation at ambient temperature
Summary of the method: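 Compounds from 10 mM DMSO stocks were incubated in 0.1 N HCl or 1× PBS pH 7.4 (1.0% DMSO, 100 μM maximum theoretical) for 24 h at 24.2-27.5 °C, then vacuum filtered. Filtrates were quantified in μM by chemiluminescent nitrogen detection against a calibration curve, corrected for background nitrogen; values for adjacent ring-nitrogen compounds were raised ~25%.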

Structure (SMILES): CCCCCCOC(=O)C(C)(C)NP(=O)(CO[C@H](C)Cn1cnc2c(N)ncnc21)NC(C)(C)C(=O)OCCCCCC [Example 1, Dihexyl 2,2′-(((((1-(6-amino-9H-purin-9-yl)propan-2-yl)oxy)methyl)phosphoryl)bis(azanediyl))(R)-bis(2-methylpropanoate)]
CC50 at 5 days [1]: 4990 nM | pEC50 (HBV): 8.71 | CC50 at 5 days [2]: > 100 nM | solubility kinetic at 24 h [3]: 33 µg/mL (≈ 52.7 µM)

Structure (SMILES): CCC(CC)COC(=O)C(C)(C)NP(=O)(CO[C@H](C)Cn1cnc2c(N)ncnc21)NC(C)(C)C(=O)OCC(CC)CC [Example 2, Bis(2-ethylbutyl) 2,2′-(((((1-(6-amino-9H-purin-9-yl)propan-2-yl)oxy)methyl)phosphoryl)bis(azanediyl))(R)-bis(2-methylpropanoate)]
CC50 at 5 days [1]: 6090 nM | pEC50 (HBV): 9.16 | CC50 at 5 days [2]: > 1000 nM | solubility kinetic at 24 h [3]: 65 µg/mL (≈ 104 µM)

Structure (SMILES): C[C@H](Cn1cnc2c(N)ncnc21)OCP(=O)(NC(C)(C)C(=O)OCCC1CCCCC1)NC(C)(C)C(=O)OCCC1CCCCC1 [Example 14, Bis(2-cyclohexylethyl) 2,2′-(((((1-(6-amino-9H-purin-9-yl)propan-2-yl)oxy)methyl)phosphoryl)bis(azanediyl))(R)-bis(2-methylpropanoate)]
CC50 at 5 days [1]: 3190 nM | pEC50 (HBV): 8.59 | CC50 at 5 days [2]: > 100 nM | solubility kinetic at 24 h [3]: 27 µg/mL (≈ 39.8 µM)

Structure (SMILES): C[C@H](Cn1cnc2c(N)ncnc21)OCP(=O)(NC(C)(C)C(=O)O[C@H]1CC[C@H](C(F)(F)F)CC1)NC(C)(C)C(=O)O[C@H]1CC[C@H](C(F)(F)F)CC1 [Example 21, Bis(trans-4-(trifluoromethyl)cyclohexyl) 2,2′-((((((R)-1-(6-amino-9H-purin-9-yl)propan-2-yl)oxy)methyl)phosphoryl)bis(azanediyl))bis(2-methylpropanoate)]
CC50 at 5 days [1]: 4470 nM | pEC50 (HBV): 8.45 | CC50 at 5 days [2]: > 100 nM | solubility kinetic at 24 h [3]: 39 µg/mL (≈ 51.5 µM)

solubility kinetic at 24 h [3]: 12 µg/mL (≈ 16.9 µM)
Structure (SMILES): CCCCCCOC(=O)C(C)(C)NP(=O)(CO[C@H](C)Cn1cnc2c(NC(=O)OCCC)ncnc21)NC(C)(C)C(=O)OCCCCCC [Example 31, Dihexyl 2,2′-(((((1-(6-((propoxycarbonyl)amino)-9H-purin-9-yl)propan-2-yl)oxy)methyl)phosphoryl)bis(azanediyl))(R)-bis(2-methylpropanoate)]
CC50 at 5 days [1]: 9010 nM | CC50 at 5 days [2]: > 100 nM

Structure (SMILES): CCCCCCOC(=O)C(C)(C)NP(=O)(CO[C@H](C)Cn1cnc2c(NC(=O)OCc3oc(=O)oc3C)ncnc21)NC(C)(C)C(=O)OCCCCCC [Example 33, Dihexyl 2,2′-(((((1-(6-((((5-methyl-2-oxo-1,3-dioxol-4-yl)methoxy)carbonyl)amino)-9H-purin-9-yl)propan-2-yl)oxy)methyl)phosphoryl)bis(azanediyl))(R)-bis(2-methylpropanoate)]
CC50 at 5 days [1]: 6620 nM | pEC50 (HBV): 8.58 | CC50 at 5 days [2]: > 100 nM | solubility kinetic at 24 h [3]: 14 µg/mL (≈ 17.9 µM)

Structure (SMILES): CCCCCCCCOC(=O)C(C)(C)NP(=O)(CO[C@H](C)Cn1cnc2c(N)ncnc21)NC(C)(C)C(=O)OCCCCCCCC [Example 39, Dioctyl 2,2′-(((((1-(6-amino-9H-purin-9-yl)propan-2-yl)oxy)methyl)phosphoryl)bis(azanediyl))(R)-bis(2-methylpropanoate)]
CC50 at 5 days [1]: 7270 nM | pEC50 (HBV): 8.35 | CC50 at 5 days [2]: > 100 nM

solubility kinetic at 24 h [3]: < 1 µg/mL
Structure (SMILES): C[C@H](Cn1cnc2c(N)ncnc21)OCP(=O)(NC(C)(C)C(=O)OC1CCC2(CCCC2)CC1)NC(C)(C)C(=O)OC1CCC2(CCCC2)CC1 (stereo partly drawn) [Example 61, Di(spiro[4.5]decan-8-yl) 2,2′-(((((1-(6-amino-9H-purin-9-yl)propan-2-yl)oxy)methyl)phosphoryl)bis(azanediyl))(R)-bis(2-methylpropanoate)]
CC50 at 5 days [1]: 6000 nM | CC50 at 5 days [2]: > 100 nM

solubility kinetic at 24 h [3]: < 1 µg/mL
Structure (SMILES): C[C@H](Cn1cnc2c(N)ncnc21)OCP(=O)(NC(C)(C)C(=O)OCCC12CC(C1)C2)NC(C)(C)C(=O)OCCC12CC(C1)C2 [Example 62, Bis(2-(bicyclo[1.1.1]pentan-1-yl)ethyl) 2,2′-(((((1-(6-amino-9H-purin-9-yl)propan-2-yl)oxy)methyl)phosphoryl)bis(azanediyl))(R)-bis(2-methylpropanoate)]
CC50 at 5 days [1]: 3190 nM | CC50 at 5 days [2]: > 100 nM

solubility kinetic at 24 h [3]: 57 µg/mL (≈ 91.7 µM)
Structure (SMILES): CCCCCCOC(=O)C(C)(C)NP(=O)(CO[C@H](C)Cn1cnc2c(N)ncnc21)NC(C)(C)C(=O)OCC12CC(C1)C2 (stereo partly drawn) [Example 77, Bicyclo[1.1.1]pentan-1-ylmethyl 2-((((((R)-1-(6-amino-9H-purin-9-yl)propan-2-yl)oxy)methyl)((1-(hexyloxy)-2-methyl-1-oxopropan-2-yl)amino)phosphoryl)amino)-2-methylpropanoate]
CC50 at 5 days [1]: > 50000 nM | CC50 at 5 days [2]: > 100 nM

solubility kinetic at 24 h [3]: < 1 µg/mL
Structure (SMILES): C[C@H](Cn1cnc2c(N)ncnc21)OCP(=O)(NC(C)(C)C(=O)OCC12CCC(CC1)C2)NC(C)(C)C(=O)OCC12CCC(CC1)C2 [Example 87, Bis(bicyclo[2.2.1]heptan-1-ylmethyl) 2,2′-(((((1-(6-amino-9H-purin-9-yl)propan-2-yl)oxy)methyl)phosphoryl)bis(azanediyl))(R)-bis(2-methylpropanoate)]
CC50 at 5 days [1]: 5050 nM | CC50 at 5 days [2]: > 100 nM

Structure (SMILES): C[C@H](Cn1cnc2c(N)ncnc21)OCP(=O)(NC(C)(C)C(=O)OCC1CCCCCC1)NC(C)(C)C(=O)OCC1CCCCCC1 [Example 89, Bis(cycloheptylmethyl) 2,2′-(((((1-(6-amino-9H-purin-9-yl)propan-2-yl)oxy)methyl)phosphoryl)bis(azanediyl))(R)-bis(2-methylpropanoate)]
CC50 at 5 days [1]: 5100 nM | pEC50 (HBV): 8.62 | CC50 at 5 days [2]: > 100 nM

Structure (SMILES): C[C@H](Cn1cnc2c(N)ncnc21)OCP(=O)(NC(C)(C)C(=O)OC[C@H]1CC[C@H](C)CC1)NC(C)(C)C(=O)OC[C@H]1CC[C@H](C)CC1 [Example 91, Bis((trans-4-methylcyclohexyl)methyl) 2,2′-((((((R)-1-(6-amino-9H-purin-9-yl)propan-2-yl)oxy)methyl)phosphoryl)bis(azanediyl))bis(2-methylpropanoate)]
CC50 at 5 days [1]: 4920 nM | pEC50 (HBV): 8.42 | CC50 at 5 days [2]: > 100 nM

solubility kinetic at 24 h [3]: 2 µg/mL (≈ 2.45 µM)
Structure (SMILES): CCCCCCOC(=O)C(C)(C)NP(=O)(CO[C@H](C)Cn1cnc2c(NC(=O)OCCOC(=O)c3ccccc3)ncnc21)NC(C)(C)C(=O)OCCCCCC [Example 94, Dihexyl 2,2′-(((((1-(6-(((2-(benzoyloxy)ethoxy)carbonyl)amino)-9H-purin-9-yl)propan-2-yl)oxy)methyl)phosphoryl)bis(azanediyl))(R)-bis(2-methylpropanoate)]
CC50 at 5 days [1]: 8220 nM | CC50 at 5 days [2]: > 100 nM

— patent US20230303599A1, “PRODRUGS OF PHOSPHONAMIDE NUCLEOTIDE ANALOGUES AND THEIR PHARMACEUTICAL USE” (priority 2020, published 2023)
